This passage reports inhibition results from article PMC10353187, “Discovery of a new potent oxindole multi-kinase inhibitor among a series of designed 3-alkenyl-oxindoles with ancillary carbonic anhydrase inhibitory activity as antiproliferative agents” (BMC Chemistry, 2023).

Each structure is given as a SMILES string.

Assay in all cases: NCI-60 single-dose antiproliferative assay (SRB)
Format in all cases: cell-based

One test relates to RXF 393. The note with it: Homo sapiens; 10 μM single dose; RXF 393, Renal cancer; read-out: Cell Growth inhibition Percent. In short, it runs like this: (§1)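 Plating at 5000–40,000 cells/well by doubling time; 24 h preincubation; a time-zero plate fixed at drug addition. Compound added at 10 µM final, incubated 48 h. Protein stained with SRB, measured at 515 nm, and GI% derived from Tz, C and Ti.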

A further test relates to A498. The note with it: Homo sapiens; 10 μM single dose; A498, Renal cancer; read-out: Cell Growth inhibition Percent. In short, it runs like this:
as §1

Another test relates to SN12C. The note with it: Homo sapiens, 10 μM single dose, Renal cancer, read-out: Cell Growth inhibition Percent. The essentials: as §1
The test system of the next test is OVCAR-5. The note with it: Homo sapiens; 10 μM single dose; OVCAR-5, Ovarian Cancer; read-out: Cell Growth inhibition Percent. The essentials: as §1
The next test has as its system SF-539. The note with it: Homo sapiens; 10 μM single dose; SF-539, CNS cancer; read-out: Cell Growth inhibition Percent. In short, it runs like this:
as §1

Another test concerns A549/ATCC. The settings on record: Homo sapiens, 10 μM single dose, Non-small cell lung cancer, read-out: Cell Growth inhibition Percent. In short, it runs like this: as §1
A further test concerns SF-295. The settings on record: Homo sapiens; 10 μM single dose; SF-295, CNS cancer; read-out: Cell Growth inhibition Percent. In short, it runs like this: as §1
The next test has as its system SK-OV-3. The note with it: Homo sapiens; 10 μM single dose; SK-OV-3, Ovarian Cancer; read-out: Cell Growth inhibition Percent. The essentials:
as §1

A further test deals with T-47D. The note with it: Homo sapiens, T47D, 10 μM single dose, Breast cancer, read-out: Cell Growth inhibition Percent. In short, it runs like this: as §1
The test system of a further test is UACC-62. The note with it: Homo sapiens; 10 μM single dose; UACC-62, Melanoma; read-out: Cell Growth inhibition Percent. In short, it runs like this: as §1
The subject of another test is SK-MEL-2. The settings on record: Homo sapiens; 10 μM single dose; SK-MEL-2, Melanoma; read-out: Cell Growth inhibition Percent. In short, it runs like this: as §1
For a further test, the system named is NCI-H460. The settings on record: Homo sapiens; 10 μM single dose; NCI-H460, Non-small cell lung cancer; read-out: Cell Growth inhibition Percent. The essentials: as §1
The subject of a further test is MOLT-4. The settings on record: Homo sapiens; 10 μM single dose; MOLT-4, Leukemia; read-out: Cell Growth inhibition Percent. In short, it runs like this:
as §1

A further test deals with HCT-116. The note with it: Homo sapiens; 10 μM single dose; HCT-116, Colon cancer; read-out: Cell Growth inhibition Percent. The essentials: as §1
In another test the test system is HCT-15. The settings on record: Homo sapiens; 10 μM single dose; HCT-15, Colon cancer; read-out: Cell Growth inhibition Percent. In short, it runs like this: as §1
The subject of another test is MDA-MB-468. The note with it: Homo sapiens; 10 μM single dose; MDA-MB-468, Breast cancer; read-out: Cell Growth inhibition Percent. The essentials:
as §1

The next test has as its system HT29. The note with it: Homo sapiens, HT-29; 10 μM single dose; HT29, Colon cancer; read-out: Cell Growth inhibition Percent. The essentials: as §1
The subject of another test is COLO205. The settings on record: Homo sapiens, COLO 205; 10 μM single dose; COLO205, Colon cancer; read-out: Cell Growth inhibition Percent. In short, it runs like this:
as §1

For `O=C1Nc2ccccc2C1=CNc1ccc(C(=O)O)cc1` [Compound 4c, 4-{[(2-Oxoindolin-3-ylidene)methyl]amino}benzoic acid], the inhibition – broadly, the change of the read-out against control, counted positive when it falls – at 10 µM in the test on RXF 393 came to 29.6%; in the test on A498, 20.1%; with SN12C, 24.8%; in the test on OVCAR-5, 0.03%; in the test with SF-539, 2.79%; in the test with A549/ATCC, 9.11%.
For the compound `NS(=O)(=O)c1nnc(NC=C2C(=O)Nc3ccccc32)s1` [Compound 4d, 5-{[(2-Oxoindolin-3-ylidene)methyl]amino}-1,3,4-thiadiazole-2-sulfonamide], the inhibition at 10 µM in the test with SF-295 turned out to be 0.84%; with SK-OV-3, 0.47%; in the test on T-47D it was 14.8%; in the test on SF-539, 3.69%; with UACC-62, 3.05%.
With `NS(=O)(=O)N/C=C1/C(=O)Nc2ccccc21` [Compound 5, 3-(sulfamidmethylene)indoline-2-one], the inhibition at 10 µM with SK-OV-3 amounted to 5.43%; in the test on T-47D it was 7.19%; in the test on UACC-62, 4.35%; with SK-MEL-2 it was 2.36%.
In the case of `O=C1Nc2ccccc2C1=CNc1ccc(C(=O)Nc2ccc(S(=O)(=O)Nc3ncccn3)cc2)cc1` [Compound 9b, 4-{[(2-Oxoindolin-3-ylidene)methyl]amino}-N-{4-[N-(pyrimidin-2-yl)sulfamoyl]phenyl}benzamide], the inhibition at 10 µM in the test on NCI-H460 was determined as 1.64%; in the test with A498 it was 9.11%; with SN12C, 20.5%; in the test on SF-539, 5.04%; in the test on UACC-62, 7.84%.
In the case of `NS(=O)(=O)c1ccc(NCc2ccc(NC=C3C(=O)Nc4ccccc43)cc2)cc1` [Compound 11a, 4-{[4-({[2-Oxoindolin-3-ylidene]methyl}amino)benzyl]amino}benzenesulfonamide], the inhibition at 10 µM in the test on RXF 393 is 26.2%; in the test on MOLT-4 it was 1.28%; in the test on T-47D, 6.76%; with SN12C, 22.9%; with A549/ATCC, 4.86%.
Consider `O=C1Nc2ccccc2C1=CNc1ccc(CNc2ccc(S(=O)(=O)Nc3ncccn3)cc2)cc1` [Compound 11b, 4-{[4-({[2-Oxoindolin-3-ylidene]methyl}amino)benzyl]amino}-N-(pyrimidin-2-yl)benzenesulfonamide], for which the inhibition at 10 µM came to 0.84% in the test on SF-295; 4.26% in the test on NCI-H460; 13.4% with HCT-116; 27.5% in the test on T-47D; 9.43% in the test on HCT-15; 3.27% in the test with UACC-62. For the same compound, the inhibition at 10 µM in the test on MDA-MB-468 is 7.66%.
Consider `O=C1Nc2ccccc2C1=CNc1ccc(C(=O)C=CNc2nccs2)cc1` [Compound 13c, 3-{[(4-{3-[Thiazol-2-ylamino]acryloyl}phenyl)amino]methylene}indolin-2-one], for which the inhibition at 10 µM in the test on SK-OV-3 was 3.75%; in the test with NCI-H460, 7.04%; in the test with HCT-116, 21.9%; in the test with SN12C, 11.6%; in the test on SF-539, 1.96%; in the test with HCT-15 it was 12%. Further, the inhibition at 10 µM with MDA-MB-468 is 23.5%; in the test with A549/ATCC, 21.6%; with HT29, 8.13%; in the test with COLO205, 1.8%.
`O=C(Nc1ccc(NC=C2C(=O)Nc3ccccc32)cc1)Nc1nccs1` [Compound 15c, 1-{4-[((2-Oxoindolin-3-ylidene)methyl)amino]phenyl}-3-(thiazol-2-yl)urea]: the inhibition at 10 µM was determined as 29.4% in the test with SF-295; 120% with RXF 393; 45% in the test with SK-OV-3; 67.8% with MOLT-4; 83.2% in the test with NCI-H460; 73% in the test on HCT-116. Further, the inhibition at 10 µM with A498 was found to be 108%; in the test with T-47D, 58.8%; with SN12C it was 32%; in the test with OVCAR-5 it was 39.6%; with SF-539 it was 66.4%; with HCT-15, 71%. In addition, the inhibition at 10 µM was found to be 75.1% in the test with UACC-62; 102% with MDA-MB-468; 43.4% with A549/ATCC; 82.1% in the test on HT29; 74.2% in the test with COLO205; 37.9% with SK-MEL-2.
